Measurements published in US20040019026A1, “Compounds useful for treating hypertriglyceridemia” (priority 2000, published 2004).
Where “and” joins values, the source holds several entries; their conditions need not be identical. Equal values may be shown once.

Key:
[1] = test system: patients with rheumatoid arthritis; assay: Oral fluasterone in rheumatoid arthritis patients, obese vs non-obese: triglycerides (Example 6); format: in vivo, human
Method: In this clinical trial oral fluasterone (1200 mg) was administered daily to patients with rheumatoid arthritis for 3 to 12 weeks. Nine patients had baseline triglyceride levels 200 mg/dL. These patients were divided into obese (BMI>30) and non-obese (BMI<30) groups. […] However, the conclusion would be the same without the addition of this patient.
The baseline levels was the mean value of week −2, 0 and the treatment levels were the last values obtained (week 3 to 12) for each patient. The obese patients has a BMI of 36.6±4.0 and the non-obese a BMI of 27.1±1.5.

[2] = test system: normal young men and women; assay: Phase I trial, oral fluasterone 14 days: HDL levels (Example 5a); format: in vivo, human
Method: (a) In a phase I trial in normal young men and women fluasterone was administered in a daily oral dose of 800 mg or 1600 mg for 14 days. The effect of this treatment on HDL levels in males and females is seen in the table hereinbelow.

Female CD-1 mice = assay: Dexamethasone-induced thymic and splenic atrophy, anti-glucocorticoid effect (Example 4); format: in vivo; details: for Spleen Wt. / Thymus Wt.: no DEX
Method: Female CD-1 mice were obtained from Charles River Laboratories, Kingston, N.Y. at 43-45 days of age. The mice were housed five per cage in plastic shoebox cages on corn cob bedding in the Fels Animal Facility at 72°±2° F. with 50%±5% humidity and twelve hours of alternate light and darkness. The mice had ad libitum access to Purina chain 5015 and acidified water for pretreatment.
Six days later, the mice were weighed, earmarked and redistributed into six groups for treatment: 1) a control group, 2) a group treated with dexamethasone (“DEX”), a glucocorticoid which induces thymic and splenic atrophy, 3) a group treated with 200 mg/kg 16α-fluoro-5-androsten-17-one (hereinafter “drug”), 4) a group treated with 400 mg/kg of, 5) a group treated with dexamethasone and 200 mg/kg drug and 6) a group treated with dexamethasone and 400 mg/kg drug. The treatment in the groups were as follows and were conducted simuitaneously.
The control group was intubated with 0.2 mL of sesame oil for three days. On the third day after commencement of the intubation, the mice were injected subcutaneously with 0.05 mL of absolute ethanol one hour after the last treatment with sesame oil.
The second group was intubated with 0.2 mL of sesame oil for three days. On the third day after the commencement of the intubation, the mice were injected subcutaneously with 1.6 mg of dexamethasone dissolved in 0.05 mL of absolute ethanol approximately one hour after the last treatment with sesame oil.
The third and fourth groups were intubated with 200 mg/Kg and 400 mg/Kg drug, respectively, suspended in 0.2 mL of sesame oil for three days. After commencement of the intubation, the mice were injected subcutaneously with 0.05 mL of absolute ethanol approximately one hour after the last treatment with sesame oil.
The fifth and sixth groups were intubated with 200 mg/kg and 400 mg/kg, respectively, of drug, suspended in 0.2 mL of sesame oil for three days. On the third day after commencement of the intubation, the mice were injected subcutaneously with 1.6 mg of dexamethasome dissolved in 0.05 mL of absolute ethanol approximately one hour after the last treatment with sesame oil.
All of the mice were sacrificed by an overdose of CO2 approximately 24 hours after the injection of ethanol (first, third and fourth groups) or approximately 24 hours after injection with dexamethasone (second, fifth and sixth groups). The mice were weighed and the thymus was excised, cleaned of adventia, rinsed in phosphate-buffered saline (P.B.S.), blotted and weighed. The spleen was also excised, cleaned, rinsed, blotted and weighed.

[3] = 200 mg/kg drug intubated for three days
[4] = 400 mg/kg drug intubated for three days

C[C@]12CCCCC1=CC[C@@H]1[C@@H]2CC[C@]2(C)C(=O)[C@H](F)C[C@@H]12 [fluasterone, 16α-fluoro-5-androsten-17-one]
Decline in triglyceride level, obese vs non-obese ([1]; 1200 mg oral daily, p=0.0113, group effect): significantly greater decline in triglyceride level than the non-obese | Triglycerides (mean ± S.D.) ([1]; Non-obese (BMI<30), baseline (mean of week −2, 0)): 310 mg/dL and 330 ± 163 (10) mg/dL | Triglycerides (mean ± S.D.) ([1]; Non-obese (BMI<30), treatment 1200 mg oral daily, last value (week 3 to 12)): 248 ± 89.8 (5) mg/dL | Triglycerides (mean ± S.D.) ([1]; Obese (BMI>30), baseline (mean of week −2, 0)): 232 mg/dL and 231 ± 57.1 (10) mg/dL | Triglycerides (mean ± S.D.) ([1]; Obese (BMI>30), treatment 1200 mg oral daily, last value (week 3 to 12)): 135 ± 12.1 (5) mg/dL | HDL Levels ([2]; 800 mg daily oral for 14 days, Females (6), treatment, less than pretreatment, p < 0.015): 46.1 ± 6.2 mg/dL | HDL Levels ([2]; 800 mg daily oral for 14 days, Males (6), treatment): 45.3 ± 15.9 mg/dL | HDL Levels ([2]; 800 mg daily oral, Females (6), pretreatment): 59.2 ± 7.0 mg/dL | HDL Levels ([2]; 800 mg daily oral, Males (6), pretreatment): 50.3 ± 20.1 mg/dL | HDL Levels ([2]; 1600 mg daily oral for 14 days, Females (5), treatment): 43.0 ± 8.1 mg/dL | HDL Levels ([2]; 1600 mg daily oral for 14 days, Males (7), treatment): 40.2 ± 7.4 mg/dL | HDL Levels ([2]; 1600 mg daily oral, Females (5), pretreatment): 45.3 ± 10.1 mg/dL | HDL Levels ([2]; 1600 mg daily oral, Males (7), pretreatment): 46.1 ± 6.6 mg/dL | Spleen Wt. (Female CD-1 mice; [3]): 103.5 ± 9.2 mg | Thymus Wt. (Female CD-1 mice; [3]): 65.0 ± 5.8 mg | Effect on dexamethasone-induced thymic and splenic atrophy (Female CD-1 mice; 400 mg/kg): significantly reduced dexamethasone-induced thymic and splenic atrophy | Spleen Wt. (Female CD-1 mice; [4]): 129.4 ± 17.9 mg | Thymus Wt. (Female CD-1 mice; [4]): 74.3 ± 7.1 mg
